One experiment has as its target T1, HiBit-BRM fusion protein (Homo sapiens, UniProt P51531).
T1 construct: expressed in transfected cells
Description: HiBiT-BRM cell-based degradation assay (Nano-Glo HiBiT lytic detection, 24 h). To be noted: HeLa cell line expressing HiBiT-BRM; for DC50: read-out: BRM HiBit Degradation IC50. How it is done:
(§1) Procedure: A stable HeLa cell line expressing HiBiT-BRM was generated. On day 0, 5000 cells were seeded in 40 μL of media into each well of 384-well cell culture plates. On day 1, cells were treated with 120 nL DMSO or 120 nL of 3-fold serially DMSO-diluted compounds (10 points in duplicate with 30 μM as final top dose). Subsequently plates were incubated for 24 h in a standard tissue culture incubator and equilibrated at room temperature for 15 minutes. Nano-GB HiBiT Lytic Detection System (Promega N3050) reagent was freshly prepared and 20 ul was added to each well. Upon addition of this LgBit-containing reagent, the HiBiT and LgBiT proteins associate to form the luminescent NanoBiT luciferase. The plates were shaken for 10 minutes at room temperature and the bioluminescence read using an EnVision plate reader (PerkinElmer).
(§2) The degradation % was calculated using the following formula: % degradation=100%−100%×(Lumsample−LuMLC)/(LuMHC−LuMLC). DMSO treated cells are employed as High Control (HC) and 2 μM of a known BRM/BRG1 degrader standard treated cells are employed as Low Control (LC).
On the technique in general: HiBiT is a short tag that completes a luciferase, so light tracks the accessible tagged protein.

Experiment [1] addresses T2, HiBit-BRG1 fusion protein (Homo sapiens, UniProt P51532).
T2 construct: expressed in transfected cells
Kind of experiment: HiBiT-BRG1 cell-based degradation assay (Nano-Glo HiBiT lytic detection, 24 h). To be noted: HeLa cell line expressing HiBit-BRG1 and LgBit; for Dmax: read-out: BRG1 HiBit Degradation Maximum (%); for DC50: read-out: BRMG1 HiBit Degradation IC50. How it is done:
as §1, with “On day 1, cells were treated with 120 nL DMSO or 120 nL of 3-fold serially DMSO-diluted compounds (10 points in duplicate with 30 μM as final top dose).” left out
For measurement of BRG1 degradation, a stable HeLa cell line expressing HiBit-BRG1 and LgBit was generated. The same protocol as above was then followed.
as §2

SMILES strings stand for the structures. Where only a bound is given, the exact number is not on record here.

T1 sequence (P51531 whole entry, the tested form may be a part): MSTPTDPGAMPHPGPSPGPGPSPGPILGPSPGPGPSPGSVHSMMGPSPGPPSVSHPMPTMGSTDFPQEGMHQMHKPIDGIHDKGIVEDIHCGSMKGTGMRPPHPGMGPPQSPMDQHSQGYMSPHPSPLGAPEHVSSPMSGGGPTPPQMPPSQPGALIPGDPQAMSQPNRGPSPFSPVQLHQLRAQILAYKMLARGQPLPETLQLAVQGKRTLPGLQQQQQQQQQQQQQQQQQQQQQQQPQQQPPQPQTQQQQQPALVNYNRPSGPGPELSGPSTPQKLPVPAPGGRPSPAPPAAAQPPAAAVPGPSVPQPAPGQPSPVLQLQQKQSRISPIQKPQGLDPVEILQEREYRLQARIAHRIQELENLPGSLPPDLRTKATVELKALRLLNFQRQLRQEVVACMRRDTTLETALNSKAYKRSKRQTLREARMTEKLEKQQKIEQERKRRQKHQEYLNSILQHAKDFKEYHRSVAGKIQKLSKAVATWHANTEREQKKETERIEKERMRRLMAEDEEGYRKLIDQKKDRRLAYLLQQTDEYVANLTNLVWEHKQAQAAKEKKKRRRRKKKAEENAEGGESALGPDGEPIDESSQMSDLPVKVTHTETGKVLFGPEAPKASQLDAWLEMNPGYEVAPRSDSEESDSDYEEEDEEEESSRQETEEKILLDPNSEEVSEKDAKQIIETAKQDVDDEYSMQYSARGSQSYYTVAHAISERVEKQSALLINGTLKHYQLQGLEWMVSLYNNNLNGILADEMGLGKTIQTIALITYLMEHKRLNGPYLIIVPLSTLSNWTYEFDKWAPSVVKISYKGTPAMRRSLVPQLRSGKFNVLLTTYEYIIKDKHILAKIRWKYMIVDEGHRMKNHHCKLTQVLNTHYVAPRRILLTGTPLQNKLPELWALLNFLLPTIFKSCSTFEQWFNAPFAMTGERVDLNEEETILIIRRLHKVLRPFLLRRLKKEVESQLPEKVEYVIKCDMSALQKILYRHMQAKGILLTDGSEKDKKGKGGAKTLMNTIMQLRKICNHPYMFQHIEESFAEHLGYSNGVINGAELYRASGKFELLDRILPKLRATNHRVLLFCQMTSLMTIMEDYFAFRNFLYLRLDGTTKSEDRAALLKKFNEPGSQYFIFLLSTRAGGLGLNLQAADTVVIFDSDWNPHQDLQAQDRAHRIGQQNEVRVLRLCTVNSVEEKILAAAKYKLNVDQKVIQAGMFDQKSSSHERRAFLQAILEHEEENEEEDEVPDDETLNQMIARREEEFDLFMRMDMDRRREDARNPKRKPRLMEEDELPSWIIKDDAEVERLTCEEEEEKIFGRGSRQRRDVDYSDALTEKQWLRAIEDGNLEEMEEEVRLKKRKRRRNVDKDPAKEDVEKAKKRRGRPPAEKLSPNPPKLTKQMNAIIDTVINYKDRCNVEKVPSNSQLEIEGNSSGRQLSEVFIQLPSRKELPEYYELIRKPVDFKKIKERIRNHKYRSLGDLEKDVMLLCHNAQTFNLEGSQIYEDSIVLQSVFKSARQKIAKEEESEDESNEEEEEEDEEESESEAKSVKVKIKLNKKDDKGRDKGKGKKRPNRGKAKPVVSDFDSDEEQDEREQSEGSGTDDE
T2 sequence (P51532 whole entry, the tested form may be a part): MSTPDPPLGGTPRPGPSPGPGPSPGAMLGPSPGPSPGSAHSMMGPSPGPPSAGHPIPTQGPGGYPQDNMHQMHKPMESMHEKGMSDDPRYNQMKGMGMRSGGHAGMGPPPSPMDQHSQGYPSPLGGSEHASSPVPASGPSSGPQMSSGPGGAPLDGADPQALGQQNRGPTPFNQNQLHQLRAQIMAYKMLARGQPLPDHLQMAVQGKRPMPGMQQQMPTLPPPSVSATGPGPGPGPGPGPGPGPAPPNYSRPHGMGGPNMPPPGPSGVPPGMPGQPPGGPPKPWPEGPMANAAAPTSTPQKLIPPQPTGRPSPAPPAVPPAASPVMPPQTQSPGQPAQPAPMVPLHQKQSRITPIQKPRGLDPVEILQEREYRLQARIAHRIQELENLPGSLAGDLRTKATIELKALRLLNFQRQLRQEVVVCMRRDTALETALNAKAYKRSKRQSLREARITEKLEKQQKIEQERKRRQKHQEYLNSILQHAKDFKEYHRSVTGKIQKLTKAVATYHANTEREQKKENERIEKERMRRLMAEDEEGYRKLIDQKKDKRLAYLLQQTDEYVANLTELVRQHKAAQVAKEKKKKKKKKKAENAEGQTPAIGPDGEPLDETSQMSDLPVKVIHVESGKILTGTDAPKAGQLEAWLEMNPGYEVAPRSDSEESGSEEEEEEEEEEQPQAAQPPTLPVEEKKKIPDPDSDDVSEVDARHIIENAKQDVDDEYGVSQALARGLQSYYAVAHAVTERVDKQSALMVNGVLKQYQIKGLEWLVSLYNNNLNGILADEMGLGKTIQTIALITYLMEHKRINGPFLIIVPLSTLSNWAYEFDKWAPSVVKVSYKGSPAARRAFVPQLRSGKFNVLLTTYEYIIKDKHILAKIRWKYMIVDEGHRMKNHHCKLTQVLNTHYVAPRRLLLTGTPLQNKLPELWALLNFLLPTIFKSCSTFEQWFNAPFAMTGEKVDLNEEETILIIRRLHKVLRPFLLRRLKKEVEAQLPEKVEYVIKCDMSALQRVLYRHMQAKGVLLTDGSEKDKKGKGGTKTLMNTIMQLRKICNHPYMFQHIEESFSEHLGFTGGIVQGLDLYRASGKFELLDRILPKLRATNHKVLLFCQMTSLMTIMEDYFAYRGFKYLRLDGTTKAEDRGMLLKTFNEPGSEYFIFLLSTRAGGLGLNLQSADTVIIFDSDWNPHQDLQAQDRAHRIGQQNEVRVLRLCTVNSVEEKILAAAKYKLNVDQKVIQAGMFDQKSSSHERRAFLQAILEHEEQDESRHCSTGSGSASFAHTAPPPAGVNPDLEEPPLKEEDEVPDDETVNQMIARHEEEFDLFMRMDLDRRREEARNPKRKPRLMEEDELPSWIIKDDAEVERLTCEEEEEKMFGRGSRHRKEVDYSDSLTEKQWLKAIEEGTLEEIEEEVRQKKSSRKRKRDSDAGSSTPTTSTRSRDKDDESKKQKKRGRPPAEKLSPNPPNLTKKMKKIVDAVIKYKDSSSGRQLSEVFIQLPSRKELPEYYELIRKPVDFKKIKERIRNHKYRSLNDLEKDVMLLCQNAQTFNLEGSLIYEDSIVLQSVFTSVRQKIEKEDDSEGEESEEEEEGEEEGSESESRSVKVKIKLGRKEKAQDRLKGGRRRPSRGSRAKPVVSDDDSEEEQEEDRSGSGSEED

`CC(C)C(C(=O)N1C[C@H](O)C[C@H]1C(=O)NC1CCCC1)c1cc(N2CC3(CC(c4cc5nnc(-c6ccccc6O)cc5n4C4CCC4)C3)C2)no1` (stereo partly drawn) [Compound 119, (2S,4R)-1-(2-(3-(6-(5-cyclobutyl-3-(2-hydroxyphenyl)-5H-pyrrolo[3,2-c]pyridazin-6-yl)-2-azaspiro[3.3]heptan-2-yl)isoxazol-5-yl)-3-methylbutanoyl)-N-cyclopentyl-4-hydroxypyrrolidine-2-carboxamide]: on HiBit-BRM fusion protein, the “BRM HiBit Degradation Maximum (%)” value is recorded as “A (“A” indicates maximum degradation ≥75%)” and the DC50 is more than 10 nM. In experiment [1], the Dmax is less than 50%.
Take `Cc1cc(-c2cc([C@H](C(=O)N3C[C@H](O)C[C@H]3C(=O)N[C@@H](C)c3ccc(-c4scnc4C)cc3)C(C)C)on2)cnc1N1CC[C@@H](c2cc3nnc(-c4ccccc4O)cc3n2C2CC2)C1` [Compound 107, (2S,4R)-1-((R)-2-(3-(6-((R)-3-(5-cyclopropyl-3-(2-hydroxyphenyl)-5H-pyrrolo[3,2-c]pyridazin-6-yl)pyrrolidin-1-yl)-5-methylpyridin-3-yl)isoxazol-5-yl)-3-methylbutanoyl)-4-hydroxy-N-((S)-1-(4-(4-methylthiazol-5-yl)phenyl)ethyl)pyrrolidine-2-carboxamide]: on HiBit-BRM fusion protein, the “BRM HiBit Degradation Maximum (%)” value was “A (“A” indicates maximum degradation ≥75%)” and the DC50 was more than 10 nM. In addition, the Dmax in experiment [1] is less than 50%.
Turning to `Cc1ncsc1-c1ccc([C@H](C)NC(=O)[C@@H]2C[C@@H](O)CN2C(=O)[C@@H](c2cc(N3CC[C@H](c4cc5nnc(-c6ccccc6O)cc5n4C4CC4)C3)no2)C(C)C)cc1` [Compound 99, (2S,4R)-1-((R)-2-(3-((S)-3-(5-cyclopropyl-3-(2-hydroxyphenyl)-5H-pyrrolo[3,2-c]pyridazin-6-yl)pyrrolidin-1-yl)isoxazol-5-yl)-3-methylbutanoyl)-4-hydroxy-N-((S)-1-(4-(4-methylthiazol-5-yl)phenyl)ethyl)pyrrolidine-2-carboxamide], on HiBit-BRM fusion protein, the “BRM HiBit Degradation Maximum (%)” value is “A (“A” indicates maximum degradation ≥75%)” and the DC50 is less than 10 nM. Also, in experiment [1], the Dmax is more than 50% and the DC50 was more than 10 nM.
As to `Cc1ncsc1-c1ccc([C@H](C)NC(=O)[C@@H]2C[C@@H](O)CN2C(=O)[C@H](C(C)C)n2cc(-c3cnc(N4CC[C@H](c5cc6nnc(-c7ccccc7O)cc6n5C5CC5)C4)nc3)nn2)cc1` [Compound 74, (2S,4R)-1-((S)-2-(4-(2-((S)-3-(5-cyclopropyl-3-(2-hydroxyphenyl)-5H-pyrrolo[3,2-c]pyridazin-6-yl)pyrrolidin-1-yl)pyrimidin-5-yl)-1H-1,2,3-triazol-1-yl)-3-methylbutanoyl)-4-hydroxy-N—((S)-1-(4-(4-methylthiazol-5-yl)phenyl)ethyl)pyrrolidine-2-carboxamide], at HiBit-BRM fusion protein, the “BRM HiBit Degradation Maximum (%)” value is “A (“A” indicates maximum degradation ≥75%)” and the DC50 is less than 10 nM. In experiment [1], the Dmax was more than 50% and the DC50 was less than 10 nM.
In the case of `Cc1ncsc1-c1ccc([C@H](C)NC(=O)[C@@H]2C[C@@H](O)CN2C(=O)[C@@H](c2cc(N3CCC4(CC3)CC(c3cc5nnc(-c6ccccc6O)cc5n3C3CC3)C4)no2)C(C)C)cc1` [Compound 117, (2S,4R)-1-((R)-2-(3-(2-(5-cyclopropyl-3-(2-hydroxyphenyl)-5H-pyrrolo[3,2-c]pyridazin-6-yl)-7-azaspiro[3.5]nonan-7-yl)isoxazol-5-yl)-3-methylbutanoyl)-4-hydroxy-N-((S)-1-(4-(4-methylthiazol-5-yl)phenyl)ethyl)pyrrolidine-2-carboxamide], on HiBit-BRM fusion protein, the “BRM HiBit Degradation Maximum (%)” value is on record as “A (“A” indicates maximum degradation ≥75%)” and the DC50 is less than 10 nM. Besides, the Dmax in experiment [1] was less than 50%.
On to `Cc1ncsc1-c1ccc([C@H](C)NC(=O)[C@@H]2C[C@@H](O)CN2C(=O)[C@H](c2cc(-c3cnc(N4CC[C@@H](c5cc6nnc(-c7ccccc7O)cc6n5C5CC5)C4)nc3)no2)C(C)C)cc1` [Compound 37, (2S,4R)-1-((S)-2-(3-(2-((R)-3-(5-cyclopropyl-3-(2-hydroxyphenyl)-5H-pyrrolo[3,2-c]pyridazin-6-yl)pyrrolidin-1-yl)pyrimidin-5-yl)isoxazol-5-yl)-3-methylbutanoyl)-4-hydroxy-N—((S)-1-(4-(4-methylthiazol-5-yl)phenyl)ethyl)pyrrolidine-2-carboxamide], for which, on HiBit-BRM fusion protein, the “BRM HiBit Degradation Maximum (%)” value is given as “A (“A” indicates maximum degradation ≥75%)” and the DC50 is more than 10 nM. In addition, the Dmax in experiment [1] was less than 50%.
On to `Cc1ncsc1-c1ccc([C@H](C)NC(=O)[C@@H]2C[C@@H](O)CN2C(=O)[C@@H](c2cc(-c3cnc(N4CC[C@@H](c5cc6nnc(-c7ccccc7O)cc6n5C5(C)CC5)C4)nc3)no2)C(C)C)cc1` [Compound 103, (2S,4R)-4-hydroxy-1-((R)-2-(3-(2-((R)-3-(3-(2-hydroxyphenyl)-5-(1-methylcyclopropyl)-5H-pyrrolo[3,2-c]pyridazin-6-yl)pyrrolidin-1-yl)pyrimidin-5-yl)isoxazol-5-yl)-3-methylbutanoyl)-N-((S)-1-(4-(4-methylthiazol-5-yl)phenyl)ethyl)pyrrolidine-2-carboxamide], for which, on HiBit-BRM fusion protein, the “BRM HiBit Degradation Maximum (%)” value was “A (“A” indicates maximum degradation ≥75%)” and the DC50 is less than 10 nM. Besides, in experiment [1], the Dmax was more than 50% and the DC50 is less than 10 nM.
Take `Cc1ncsc1-c1ccc([C@H](C)NC(=O)[C@@H]2C[C@@H](O)CN2C(=O)[C@@H](c2cc(-c3cnc(N4CC5(CC(c6cc7nnc(-c8ccccc8O)cc7n6C67CC(C6)C7)C5)C4)nc3)no2)C(C)C)cc1` [Compound 64, (2S,4R)-1-((R)-2-(3-(2-(6-(5-(bicyclo[1.1.1]pentan-1-yl)-3-(2-hydroxyphenyl)-5H-pyrrolo[3,2-c]pyridazin-6-yl)-2-azaspiro[3.3]heptan-2-yl)pyrimidin-5-yl)isoxazol-5-yl)-3-methylbutanoyl)-4-hydroxy-N-((S)-1-(4-(4-methylthiazol-5-yl)phenyl)ethyl)pyrrolidine-2-carboxamide]: at HiBit-BRM fusion protein, the “BRM HiBit Degradation Maximum (%)” value is “A (“A” indicates maximum degradation ≥75%)” and the DC50 was less than 10 nM. Further, in experiment [1], the Dmax was less than 50%.
Regarding `Cc1ncsc1-c1ccc([C@H](C)NC(=O)[C@@H]2C[C@@H](O)CN2C(=O)[C@@H](c2cc(-c3cnc(N4CC[C@H](c5cc6nnc(-c7cc(F)cc(F)c7O)cc6n5C5CC5)C4)nc3)no2)C(C)C)cc1` [Compound 108, (2S,4R)-1-((R)-2-(3-(2-((S)-3-(5-cyclopropyl-3-(3,5-difluoro-2-hydroxyphenyl)-5H-pyrrolo[3,2-c]pyridazin-6-yl)pyrrolidin-1-yl)pyrimidin-5-yl)isoxazol-5-yl)-3-methylbutanoyl)-4-hydroxy-N-((S)-1-(4-(4-methylthiazol-5-yl)phenyl)ethyl)pyrrolidine-2-carboxamide], at HiBit-BRM fusion protein, the “BRM HiBit Degradation Maximum (%)” value was “B (“B” indicates maximum degradation ≥50%)” and the DC50 is more than 10 nM. The Dmax in experiment [1] was less than 50%.
As to `Cc1ncsc1-c1ccc([C@H](C)NC(=O)[C@@H]2C[C@@H](O)CN2C(=O)[C@@H](c2cc(N3CC[C@H](c4cc5nnc(-c6ccccc6O)cc5n4C4(C)CC4)C3)no2)C(C)C)cc1` [Compound 80, (2S,4R)-4-hydroxy-1-((R)-2-(3-((S)-3-(3-(2-hydroxyphenyl)-5-(1-methylcyclopropyl)-5H-pyrrolo[3,2-c]pyridazin-6-yl)pyrrolidin-1-yl)isoxazol-5-yl)-3-methylbutanoyl)-N-((S)-1-(4-(4-methylthiazol-5-yl)phenyl)ethyl)pyrrolidine-2-carboxamide], at HiBit-BRM fusion protein, the “BRM HiBit Degradation Maximum (%)” value is “A (“A” indicates maximum degradation ≥75%)” and the DC50 was more than 10 nM. Also, in experiment [1], the Dmax was more than 75% and the DC50 was more than 10 nM.
Consider `Cc1ncsc1-c1ccc([C@H](C)NC(=O)[C@@H]2C[C@@H](O)CN2C(=O)[C@@H](c2cc(N3CCC[C@H](c4cc5nnc(-c6ccccc6O)cc5n4C4CC4)C3)no2)C(C)C)cc1` [Compound 98, (2S,4R)-1-((R)-2-(3-((S)-3-(5-cyclopropyl-3-(2-hydroxyphenyl)-5H-pyrrolo[3,2-c]pyridazin-6-yl)piperidin-1-yl)isoxazol-5-yl)-3-methylbutanoyl)-4-hydroxy-N-((S)-1-(4-(4-methylthiazol-5-yl)phenyl)ethyl)pyrrolidine-2-carboxamide], for which, at HiBit-BRM fusion protein, the “BRM HiBit Degradation Maximum (%)” value was “A (“A” indicates maximum degradation ≥75%)” and the DC50 is more than 10 nM. Moreover, in experiment [1], the Dmax was more than 75% and the DC50 was more than 10 nM.

These data come from patent US20250302832A1, “PYRAZINE DERIVATIVES AND USES THEREOF” (FOGHORN THERAPEUTICS INC., priority 2022, published 2025).
